Data: patent US20070270458A1 (priority 2003, published 2007)

Molecular target: α7 nAChR subtype (Rattus norvegicus, UniProt Q05941)
Format: binding

α7 nAChR subtype, sequence (Q05941 23-502 limits assumed): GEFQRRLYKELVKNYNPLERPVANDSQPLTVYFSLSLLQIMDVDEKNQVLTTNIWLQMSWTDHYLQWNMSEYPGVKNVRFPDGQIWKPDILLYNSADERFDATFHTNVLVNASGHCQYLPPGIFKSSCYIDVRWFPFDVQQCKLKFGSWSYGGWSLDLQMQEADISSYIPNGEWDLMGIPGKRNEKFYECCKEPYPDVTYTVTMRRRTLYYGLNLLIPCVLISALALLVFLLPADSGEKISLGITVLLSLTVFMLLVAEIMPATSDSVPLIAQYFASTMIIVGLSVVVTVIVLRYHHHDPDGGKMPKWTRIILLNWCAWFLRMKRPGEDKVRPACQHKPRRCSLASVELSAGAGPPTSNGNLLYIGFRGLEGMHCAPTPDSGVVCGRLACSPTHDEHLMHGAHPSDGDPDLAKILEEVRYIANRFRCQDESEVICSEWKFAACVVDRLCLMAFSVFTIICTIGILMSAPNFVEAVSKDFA

## ^125I-α—Bungarotoxin [^125I-α-BTX]
  Kd: 1.67 nM
